Like-named read-outs stand apart in the source and are kept apart here. One block for each compound: values may come before it.
Biological target: T1, human p38 kinase alpha (Homo sapiens, UniProt Q16539)
T1 construct: GST (N, cleaved yes); made in house; host or cells: E. coli DH10B
Test: p38 kinase in vitro assay, phosphorylation of biotinylated PHAS-I with 32P-ATP
Format: biochemical
Details: for IC50: read-out: P38 alpha kinase IC50; for inhibition at 1 µM: read-out: P38 alpha kinase % inhib @ conc.

[1] = in vitro P38-alpha kinase inhibition

T1 sequence (Q16539 whole entry): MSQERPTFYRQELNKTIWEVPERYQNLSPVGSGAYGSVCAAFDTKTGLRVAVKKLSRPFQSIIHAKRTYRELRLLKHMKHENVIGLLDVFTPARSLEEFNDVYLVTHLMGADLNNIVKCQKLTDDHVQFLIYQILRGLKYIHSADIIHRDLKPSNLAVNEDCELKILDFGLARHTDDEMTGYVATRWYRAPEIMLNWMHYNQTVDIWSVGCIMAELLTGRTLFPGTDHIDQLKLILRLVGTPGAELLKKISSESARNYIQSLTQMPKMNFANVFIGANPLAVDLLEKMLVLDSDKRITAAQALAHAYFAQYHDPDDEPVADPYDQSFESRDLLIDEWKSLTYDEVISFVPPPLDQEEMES

IC50 (in vitro P38-alpha kinase): 0.08 µM
Compound: O=C(O)c1ccccc1S(=O)(=O)NCCCc1[nH]nc(-c2ccc(F)cc2)c1-c1ccncc1 [Example B-1242]

IC50 (in vitro P38-alpha kinase): < 0.1 µM
Compound: O=S(=O)(NCc1[nH]nc(-c2ccc(F)cc2)c1-c1ccncc1)c1ccc(-c2ccccc2)cc1 [Example B-0256]

P38 alpha kinase % inhib @ conc. (uM) (@ 1.0 uM): 69.0% @
Compound: O=C(NCCCc1[nH]nc(-c2ccc(F)cc2)c1-c1ccncc1)c1ccccn1 [Example B-1184]

P38 alpha kinase % inhib @ conc. (@ 10.0 uM): 32.0% @
Compound: Cc1c(-c2ccncc2)c(-c2ccc(F)cc2)nn1CC(=O)N(C)CCc1ccccc1 [Example B-2376]

P38 alpha kinase % inhib @ conc. (uM) (@ 1.0 uM): 72.0% @
Compound: O=C(NCCc1[nH]nc(-c2ccc(F)cc2)c1-c1ccncc1)C1CCC1 [Example B-0988]

IC50 (in vitro P38-alpha kinase): < 0.1 µM
Compound: Cc1ccccc1S(=O)(=O)NCCCc1[nH]nc(-c2ccc(F)cc2)c1-c1ccncc1 [Example B-1274]

IC50 (in vitro P38-alpha kinase): 0.27 µM
Compound: O=C(NCCCc1[nH]nc(-c2ccc(F)cc2)c1-c1ccncc1)c1ccc(Cl)cc1Cl [Example B-1345]

IC50 [1]: 0.84 µM
Compound: CC(C)S(=O)(=O)NC(Cc1ccccc1)c1[nH]nc(-c2ccc(F)cc2)c1-c1ccncc1 (stereo not drawn) [Example B-0709]

IC50 (in vitro P38-alpha kinase): 0.32 µM
Compound: O=C(c1cccc(Cl)c1)N1CCC(c2[nH]nc(-c3ccc(F)cc3)c2-c2ccncc2)CC1 [Example B-1394]

IC50 (in vitro P38-alpha kinase): 0.22 µM
Compound: CS(=O)(=O)c1ccccc1S(=O)(=O)N1CCC(c2[nH]nc(-c3ccc(F)cc3)c2-c2ccncc2)CC1 [Example B-1462]

P38 alpha kinase % inhib @ conc. (uM) (@ 1.0 uM): 67.0% @
Compound: CCNC(=O)NCCc1[nH]nc(-c2ccc(F)cc2)c1-c1ccncc1 [Example B-1049]

IC50 [1]: < 0.1 µM
Compound: O=S(=O)(NCCc1[nH]nc(-c2ccc(F)cc2)c1-c1ccncc1)c1ccccc1Br [Example B-1082]

IC50 [1]: 0.66 µM
Compound: CC(NC(=O)N(C)C)c1[nH]nc(-c2ccc(F)cc2)c1-c1ccncc1 (stereo not drawn) [Example B-0584]

P38 alpha kinase % inhib @ conc. (@ 1.0 uM): 82.0% @
Compound: O=C(NCCCc1[nH]nc(-c2ccc(F)cc2)c1-c1ccncc1)NCCc1ccccc1 [Example B-1221]

IC50 [1]: 0.47 µM
Compound: O=C(NCCc1[nH]nc(-c2ccc(F)cc2)c1-c1ccncc1)c1cccc(F)c1F [Example B-1146]

P38 alpha kinase % inhib @ conc. (uM) (@ 1.0 uM): 76.0% @
Compound: CC(C)COC(=O)NCCCc1[nH]nc(-c2ccc(F)cc2)c1-c1ccncc1 [Example B-1187]

IC50 (in vitro P38-alpha kinase): 0.67 µM
Compound: Cc1ccccc1S(=O)(=O)N1CCC(c2[nH]nc(-c3ccc(F)cc3)c2-c2ccncc2)CC1 [Example B-1459]

P38 alpha kinase % inhib @ conc. (@ 1.0 uM): 90.0% @
Compound: CCCOC(=O)NCCCc1[nH]nc(-c2ccc(F)cc2)c1-c1ccncc1 [Example B-1230]

P38 alpha kinase IC50, uM or % inhib @ conc. (uM): % inhib (@ 10.0 uM): 82.0% @
Compound: Cc1c(-c2ccncc2)c(-c2ccc(F)cc2)nn1CC(=O)Nc1cccc(SC(F)(F)F)c1 [Example B-2459]

P38 alpha kinase % inhib @ conc. (@ 1.0 uM): 89.0% @
Compound: CC(C)OC(=O)NCCCc1[nH]nc(-c2ccc(F)cc2)c1-c1ccncc1 [Example B-1234]

P38 alpha kinase % inhib @ conc. (uM) (@ 1.0 uM): 68.0% @
Compound: COc1cccc(NC(=O)NCCc2[nH]nc(-c3ccc(F)cc3)c2-c2ccncc2)c1 [Example B-0948]

IC50 [1]: 1.68 µM
Compound: CCN(CC)C(=O)NC(C)c1[nH]nc(-c2ccc(F)cc2)c1-c1ccncc1 (stereo not drawn) [Example B-0597]

IC50 (in vitro P38-alpha kinase): 4.61 µM
Compound: Cc1c(-c2ccncc2)c(-c2ccc(F)cc2)nn1CC(=O)NCCN1CCOCC1 [Example B-2284]

P38 alpha kinase % inhib @ conc. (uM) (@ 1.0 uM): 68.0% @
Compound: COc1ccccc1C(=O)NCCCc1[nH]nc(-c2ccc(F)cc2)c1-c1ccncc1 [Example B-1172]

P38 alpha kinase % inhib @ conc. (@ 10.0 uM): 38.0% @
Compound: CC[C@H](C)[C@H](NC(=O)Cn1nc(-c2ccc(F)cc2)c(-c2ccncc2)c1C)C(=O)OC [Example B-2353]

P38 alpha kinase % inhib @ conc. (uM) (@ 1.0 uM): 80.0% @
Compound: O=C(NCCCc1[nH]nc(-c2ccc(F)cc2)c1-c1ccncc1)c1ccno1 [Example B-1169]

IC50 [1]: 2.64 µM
Compound: Cc1c(C)c(S(=O)(=O)NC(C)c2[nH]nc(-c3ccc(F)cc3)c2-c2ccncc2)c(C)c2c1OC(C)(C)CC2 (stereo not drawn) [Example B-0659]

P38 alpha kinase % inhib @ conc. (@ 10.0 uM): 47.0% @
Compound: COC(=O)[C@H](CC(C)C)NC(=O)Cn1nc(-c2ccc(F)cc2)c(-c2ccncc2)c1C [Example B-2364]

IC50 (in vitro P38-alpha kinase): 0.54 µM
Compound: COc1cc(CNC(=O)Cn2nc(-c3ccc(F)cc3)c(-c3ccncc3)c2C)cc(OC)c1 [Example B-2305]

P38 alpha kinase % inhib @ conc. (@ 10.0 uM): 72.0% @
Compound: CCOC(=O)N1CCC(NC(=O)Cn2nc(-c3ccc(F)cc3)c(-c3ccncc3)c2C)CC1 [Example B-2329]

IC50 [1]: 2.22 µM
Compound: O=C(NCCc1[nH]nc(-c2ccc(F)cc2)c1-c1ccncc1)c1cccc(Cl)c1 [Example B-1153]

IC50 (in vitro P38-alpha kinase): 0.014 µM
Compound: Cc1cccc(Cl)c1S(=O)(=O)NCCCc1[nH]nc(-c2ccc(F)cc2)c1-c1ccncc1 [Example B-1272]

P38 alpha kinase % inhib @ conc. (@ 100.0 uM): 73% @
Compound: Cc1c(-c2ccncc2)c(-c2ccc(F)cc2)nn1CC(=O)N(C)Cc1ccccc1 [Example B-2370]

P38 alpha kinase IC50, uM or % inhib @ conc. (uM): % inhib (@ 10.0 uM): 80.0% @
Compound: CCCCCCOc1ccc(NC(=O)Cn2nc(-c3ccc(F)cc3)c(-c3ccncc3)c2C)cc1 [Example B-2436]

P38 alpha kinase % inhib @ conc. (uM) (@ 1.0 uM): 77.0% @
Compound: O=C(NCCc1[nH]nc(-c2ccc(F)cc2)c1-c1ccncc1)c1ccno1 [Example B-0992]

inhibition at 1 µM (@ 1.0 uM): 42%
Compound: O=C(NCc1[nH]nc(-c2ccc(F)cc2)c1-c1ccncc1)c1ccc(-c2ccccc2)cc1 [Example B-0008]

IC50 (in vitro P38-alpha kinase): 0.91 µM
Compound: Cc1c(-c2ccncc2)c(-c2ccc(F)cc2)nn1CC(=O)NCc1ccco1 [Example B-2282]

IC50 (in vitro P38-alpha kinase): < 0.1 µM
Compound: COc1ccc(C)cc1S(=O)(=O)NCCCc1[nH]nc(-c2ccc(F)cc2)c1-c1ccncc1 [Example B-1275]

P38 alpha kinase % inhib @ conc. (uM) (@ 1.0 uM): 88.0% @
Compound: O=S(=O)(NCCc1[nH]nc(-c2ccc(F)cc2)c1-c1ccncc1)c1ccc(F)cc1F [Example B-1018]

IC50 [1]: 2.47 µM
Compound: O=C(NCCc1[nH]nc(-c2ccc(F)cc2)c1-c1ccncc1)c1cc(F)cc(C(F)(F)F)c1 [Example B-1141]

P38 alpha kinase IC50, uM or % inhib @ conc. (uM): % inhib (@ 100.0 uM): 47% @
Compound: CCN(CC)CCN(CCN(CC)CC)C(=O)Cn1nc(-c2ccc(F)cc2)c(-c2ccncc2)c1C [Example B-2407]

P38 alpha kinase IC50, uM or % inhib @ conc. (uM): % inhib (@ 10.0 uM): 43.0% @
Compound: Cc1c(-c2ccncc2)c(-c2ccc(F)cc2)nn1CC(=O)N(CCc1ccccc1)CCc1ccccn1 [Example B-2402]

P38 alpha kinase % inhib @ conc. (@ 1.0 uM): 84.0% @
Compound: CS(=O)(=O)NCCCc1[nH]nc(-c2ccc(F)cc2)c1-c1ccncc1 [Example B-1201]

P38 alpha kinase % inhib @ conc. (@ 1.0 uM): 89.0% @
Compound: CCNC(=O)NCCCc1[nH]nc(-c2ccc(F)cc2)c1-c1ccncc1 [Example B-1226]

IC50 [1]: < 0.1 µM
Compound: CC(NS(=O)(=O)c1ccc(C(F)(F)F)cc1)c1[nH]nc(-c2ccc(F)cc2)c1-c1ccncc1 (stereo not drawn) [Example B-0636]

inhibition at 1 µM (@ 1.0 uM): 68%
Compound: Cc1ccc(C(=O)NCc2[nH]nc(-c3ccc(F)cc3)c2-c2ccncc2)cc1 [Example B-0021]

IC50 (in vitro P38-alpha kinase): 2.41 µM
Compound: O=S(=O)(c1ccc(Cl)c(Cl)c1)N1CCC(c2[nH]nc(-c3ccc(F)cc3)c2-c2ccncc2)CC1 [Example B-1452]

IC50 [1]: 0.51 µM
Compound: O=C(NC(Cc1ccccc1)c1[nH]nc(-c2ccc(F)cc2)c1-c1ccncc1)N1CCOCC1 (stereo not drawn) [Example B-0727]

IC50 (in vitro P38-alpha kinase): 0.059 µM
Compound: O=C(NCCCc1[nH]nc(-c2ccc(F)cc2)c1-c1ccncc1)c1ccc(C(F)(F)F)cc1 [Example B-1356]

IC50 [1]: 0.091 µM
Compound: COc1ccc(S(=O)(=O)NC(C)c2[nH]nc(-c3ccc(F)cc3)c2-c2ccncc2)cc1OC (stereo not drawn) [Example B-0577]

P38 alpha kinase % inhib @ conc. (uM) (@ 1.0 uM): 90.0% @
Compound: CCOC(=O)c1ccc(NC(=O)NCCc2[nH]nc(-c3ccc(F)cc3)c2-c2ccncc2)cc1 [Example B-0949]

— patent US6979686B1, “Substituted pyrazoles as p38 kinase inhibitors” (Pharmacia Corporation, priority 2001, dated 2005)
